pIC50, pKd: −log10 of the molar value.
Assays:
[1] = target: T1, Mitogen-activated protein kinase kinase kinase 5 (Homo sapiens, UniProt Q99683); test: Inhibition of ASK1 by fluorescence correlation spectroscopy
T1 sequence (Q99683 whole entry): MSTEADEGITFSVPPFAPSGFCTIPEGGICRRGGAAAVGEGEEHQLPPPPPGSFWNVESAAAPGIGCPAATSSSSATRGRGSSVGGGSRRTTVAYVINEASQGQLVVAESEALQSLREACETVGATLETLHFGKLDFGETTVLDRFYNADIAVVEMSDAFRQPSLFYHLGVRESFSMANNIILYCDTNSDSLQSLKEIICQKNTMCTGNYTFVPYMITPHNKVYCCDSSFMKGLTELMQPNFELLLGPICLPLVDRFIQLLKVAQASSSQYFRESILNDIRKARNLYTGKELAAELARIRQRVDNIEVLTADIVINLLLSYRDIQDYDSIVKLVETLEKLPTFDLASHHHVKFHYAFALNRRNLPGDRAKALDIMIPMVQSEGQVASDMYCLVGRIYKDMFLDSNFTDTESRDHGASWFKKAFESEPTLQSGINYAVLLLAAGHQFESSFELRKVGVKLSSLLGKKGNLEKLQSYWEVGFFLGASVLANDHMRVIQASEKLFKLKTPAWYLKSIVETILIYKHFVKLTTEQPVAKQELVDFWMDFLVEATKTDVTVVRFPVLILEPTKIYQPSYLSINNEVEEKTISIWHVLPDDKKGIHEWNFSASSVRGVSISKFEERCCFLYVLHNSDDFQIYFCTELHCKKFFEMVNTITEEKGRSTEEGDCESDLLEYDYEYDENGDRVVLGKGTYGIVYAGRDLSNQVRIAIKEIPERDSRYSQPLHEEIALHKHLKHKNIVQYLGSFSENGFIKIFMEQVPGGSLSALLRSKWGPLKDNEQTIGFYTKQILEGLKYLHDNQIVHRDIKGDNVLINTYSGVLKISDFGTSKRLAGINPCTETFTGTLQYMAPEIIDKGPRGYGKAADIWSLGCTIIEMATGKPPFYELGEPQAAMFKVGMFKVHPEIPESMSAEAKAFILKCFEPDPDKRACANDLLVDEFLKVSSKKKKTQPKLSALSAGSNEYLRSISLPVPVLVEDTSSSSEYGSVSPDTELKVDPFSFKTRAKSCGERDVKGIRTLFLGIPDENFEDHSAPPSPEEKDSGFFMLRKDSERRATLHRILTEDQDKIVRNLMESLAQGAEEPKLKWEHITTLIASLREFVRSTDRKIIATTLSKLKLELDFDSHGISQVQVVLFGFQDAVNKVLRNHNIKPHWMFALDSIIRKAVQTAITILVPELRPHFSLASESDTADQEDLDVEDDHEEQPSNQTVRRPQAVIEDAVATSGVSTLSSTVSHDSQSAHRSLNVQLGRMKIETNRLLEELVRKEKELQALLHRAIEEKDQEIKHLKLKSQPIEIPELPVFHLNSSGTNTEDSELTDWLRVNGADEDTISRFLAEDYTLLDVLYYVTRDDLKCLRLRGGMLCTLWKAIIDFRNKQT

[2] = target: T1, Mitogen-activated protein kinase kinase kinase 5; test: Inhibition of ASK1 by luciferase assay
[3] = target: T1, Mitogen-activated protein kinase kinase kinase 5; test: Binding affinity to ASK1

Row | pIC50 [1] | pIC50 [2] | pKd [3] | Structure (SMILES)
1 | 5.15 | 6.82 | – | NC1=NC(=O)/C(=C2\CCNC(=O)c3[nH]c(Br)cc32)N1 [HYMENIALDISINE]
2 | < 4.00 | 4.08 | – | Cn1cc(/C=C2\C(=O)Nc3ccccc32)c2ccccc21
3 | – | – | 5.10 | CO[C@@H]1[C@H](N(C)C(=O)COCCOCCNC(=O)c2ccc(-c3c4ccc(=[N+](C)C)cc-4oc4cc(N(C)C)ccc34)c(C(=O)O)c2)C[C@H]2O[C@]1(C)n1c3ccccc3c3c4c(c5c6ccccc6n2c5c31)C(=O)NC4

Reference: ChEMBL document CHEMBL1157449, “Development of a novel fluorescent probe for fluorescence correlation spectroscopic detection of kinase inhibitors” (Bioorg Med Chem Lett, 2008)
